This passage reports IC50 results from patent publication US10183950B2, “Thienopyrimidine inhibitors of atypical protein kinase C” (Cancer Research Technology Limited, priority 2011, dated 2019).

SMILES strings stand for the structures. Where two headings read alike, the source gives them in different places.

The assay has as its target T1, full-length human PKCι (Homo sapiens, UniProt P41743).
T1 construct: Recombinant, full-length human PKCι expressed in Sf21 insect cells is also commercially available; purchased; host or cells: Sf21 insect cells
T1 sequence (P41743 1-596): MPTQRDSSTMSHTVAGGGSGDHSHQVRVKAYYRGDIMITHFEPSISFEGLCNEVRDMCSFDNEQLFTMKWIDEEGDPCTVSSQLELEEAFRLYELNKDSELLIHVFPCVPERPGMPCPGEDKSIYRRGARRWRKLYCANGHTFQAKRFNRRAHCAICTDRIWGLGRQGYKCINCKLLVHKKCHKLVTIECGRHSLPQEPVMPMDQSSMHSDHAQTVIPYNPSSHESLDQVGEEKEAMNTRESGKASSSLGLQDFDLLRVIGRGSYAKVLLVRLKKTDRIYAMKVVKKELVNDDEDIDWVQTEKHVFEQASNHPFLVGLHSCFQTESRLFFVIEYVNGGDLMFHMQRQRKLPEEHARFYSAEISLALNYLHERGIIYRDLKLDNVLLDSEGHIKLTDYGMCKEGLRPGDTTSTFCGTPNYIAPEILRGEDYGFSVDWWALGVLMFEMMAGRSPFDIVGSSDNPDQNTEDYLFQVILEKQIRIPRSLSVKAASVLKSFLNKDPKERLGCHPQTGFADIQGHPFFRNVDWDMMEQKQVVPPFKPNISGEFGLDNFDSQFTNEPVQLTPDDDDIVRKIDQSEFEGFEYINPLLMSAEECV
Briefly: PKCι IC50 IMAP fluorescence polarisation assay, full-length enzyme. In kind it is biochemical. As to conditions: full length PKCi at 15 μM ATP. As for the experimental part:
Assays are based on the ability of PKCι to phosphorylate a commercially available peptide substrate in vitro. […] Recombinant, full-length human PKCι expressed in Sf21 insect cells is also commercially available. Recombinant, kinase-domain human PKCι is expressed and purified in-house.
The procedure below explains how dose response curves for inhibitors of PKCι are obtained.
Compounds to be tested are dissolved in 100% DMSO. […] 1 μl is plated into 384 well black low-binding flat bottomed assay plates which are used immediately. Dilutions and additions of compound to assay plates are carried out using Matrix WellMate® and Matrix PlateMate® Plus liquid handling systems.
The final concentration of peptide substrate in the assay is 100 nM. […] Relevant controls are included, namely no compound and no enzyme. […] The reaction is allowed to incubate for 60 minutes at room temperature, before the reaction is stopped and developed by the addition of 20 μl IMAP™ development reagent (Molecular Devices). IMAP development reagent consists of 0.25% (v/v) IMAP progressive binding reagent, 17% (v/v) IMAP progressive binding buffer A and 3% (v/v) IMAP progressive binding buffer B. The plates are then incubated for 2 hours at room temperature before being read using an appropriate plate reader, for example a Molecular Devices HT Analyst or a BMG Pherastar.
(Polarisation of emitted light reports the rotation of a fluorescent probe.)

Where [1] appears, read: read-out: IC50 in IMAP assay against full length PKCi (Activity).
Where [2] appears, read: read-out: IC50 in IMAP assay against full length PKCi.

As a reminder, the IC50 is the midpoint of a concentration-inhibition curve. As for `NC(CNc1nc(-c2ccncc2)nc2sc3c(c12)CCCC3)Cc1c[nH]c2ccccc12` (stereo in doubt) [compound 63, (S)-3-(1H-Indol-3-yl)-N*1*- (2-pyridin-4-yl-5,6,7,8-tetrahydro-benzo[4,5]thieno[2,3-d]pyrimidin-4-yl)-propane-1,2-diamine], the IC50 under setting [1] was 1000 to 10000 nM.
Consider `Cc1sc2c(NCC(C)N)nc(-c3ccncc3)nc2c1Br` (stereo in doubt) [compound 330, (R)-N*1*-(7-Bromo-6-methyl-2-pyridin-4-yl-thieno[3,2-d]pyrimidin-4-yl)-propane-1,2-diamine], for which the concentration for half-maximal inhibition (IC50) under setting [2] lay within 1000 to 10000 nM.
In the case of `NC(CNc1nc(-c2ccncc2F)nc2c(-c3cncnc3)csc12)Cc1ccccc1` (stereo in doubt) [compound 422, (R)-N*1*-[2-(3-Fluoro-pyridin-4-yl)-7-pyrimidin-5-yl-thieno[3,2-d]pyrimidin-4-yl]-3-phenyl-propane-1,2-diamine], under setting [2], the IC50 was in the range of 1000 to 10000 nM.
Take `NC(CNc1nc(-c2ccncc2F)nc2c(-c3cccnc3)csc12)Cc1ccccc1` (stereo in doubt) [compound 423, (R)-N*1*-[2-(3-Fluoro-pyridin-4-yl)-7-pyridin-3-yl-thieno[3,2-d]pyrimidin-4-yl]-3-phenyl-propane-1,2-diamine]: the concentration for half-maximal inhibition (IC50) under setting [2] lay within 1000 to 10000 nM.
Still for that read-out and setting: the figure for `NC(CNc1nc(-c2ccncc2F)nc2c(-c3ccc(CO)cc3)csc12)Cc1ccccc1` (stereo in doubt) [compound 424, {4-[4-((R)-2-Amino-3-phenyl-propylamino)-2-(3-fluoro-pyridin-4-yl)-thieno[3,2-d]pyrimidin-7-yl]-phenyl}-methanol] is 1000 to 10000 nM; for `NC(CNc1nc(-c2ccncc2F)nc2c(-c3cccc(CO)c3)csc12)Cc1ccccc1` (stereo in doubt) [compound 425, {3-[4-((R)-2-Amino-3-phenyl-propylamino)-2-(3-fluoro-pyridin-4-yl)-thieno[3,2-d]pyrimidin-7-yl]-phenyl}-methanol] it is 1000 to 10000 nM; for `NC(CNc1nc(-c2ccncc2F)nc2c(-c3ccoc3)csc12)Cc1ccccc1` (stereo in doubt) [compound 426, (R)-N*1*-[2-(3-Fluoro-pyridin-4-yl)-7-furan-3-yl-thieno[3,2-d]pyrimidin-4-yl]-3-phenyl-propane-1,2-diamine] it is 100 to 1000 nM.
Same read-out and setting: the figure for `NCc1ccc(-c2csc3c(NCC(N)Cc4ccccc4)nc(-c4ccncc4F)nc23)cc1` (stereo in doubt) [compound 427, (R)-N*1*-[7-(4-Aminomethyl-phenyl)-2-(3-fluoro-pyridin-4-yl)-thieno[3,2-d]pyrimidin-4-yl]-3-phenyl-propane-1,2-diamine] is 1000 to 10000 nM; for `Cc1noc(C)c1-c1csc2c(NCC(N)Cc3ccccc3)nc(-c3ccncc3F)nc12` (stereo in doubt) [compound 428, (R)-N*1*-[7-(3,5-Dimethyl-isoxazol-4-yl)-2-(3-fluoro-pyridin-4-yl)-thieno[3,2-d]pyrimidin-4-yl]-3-phenyl-propane-1,2-diamine] it is 1000 to 10000 nM.
For `NC(CNc1nc(-c2ccncc2F)nc2c(-c3ccncc3)csc12)Cc1ccccc1` (stereo in doubt) [compound 429, (R)-N*1*-[2-(3-Fluoro-pyridin-4-yl)-7-pyridin-4-yl-thieno[3,2-d]pyrimidin-4-yl]-3-phenyl-propane-1,2-diamine], the IC50 under setting [2] lay in the range of 1000 to 10000 nM.
Still for that read-out and setting: the figure for `NC(CNc1nc(-c2ccncc2F)nc2c(-c3ccc(F)cc3)csc12)Cc1ccccc1` (stereo in doubt) [compound 430, (R)-N*1*-[7-(4-Fluoro-phenyl)-2-(3-fluoro-pyridin-4-yl)-thieno[3,2-d]pyrimidin-4-yl]-3-phenyl-propane-1,2-diamine] is 1000 to 10000 nM; for `NC(CNc1nc(-c2ccncc2F)nc2c(-c3ccsc3)csc12)Cc1ccccc1` (stereo in doubt) [compound 431, (R)-N*1*-[2-(3-Fluoro-pyridin-4-yl)-7-thiophen-3-yl-thieno[3,2-d]pyrimidin-4-yl]-3-phenyl-propane-1,2-diamine] it is 1000 to 10000 nM.
Consider `NC(CNc1nc(-c2ccncc2F)nc2c(-c3ccco3)csc12)Cc1ccccc1` (stereo in doubt) [compound 432, (R)-N*1*-[2-(3-Fluoro-pyridin-4-yl)-7-furan-2-yl-thieno[3,2-d]pyrimidin-4-yl]-3-phenyl-propane-1,2-diamine], for which the IC50 under setting [2] was 100 to 1000 nM.
Regarding `NCCNc1nc(-c2ccncc2)nc2sc3c(c12)CCCC3` [compound 12, N*1*-(2-pyridin-4-yl-5,6,7,8-tetrahydro-benzo[4,5]thieno[2,3-d]pyrimidin-4-yl)-ethane-1,2-diamine], under setting [1], the half-inhibitory concentration (IC50) is 100 to 1000 nM.
On the same count and under the same terms, the figure for `NCCNc1nc(-c2ccncc2)nc2sc3c(c12)CCN(C(=O)c1ccccc1)C3` [compound 27, [4-(2-Amino-ethylamino)-2-pyridin-4-yl-5,8-dihydro-6H-pyrido[4′,3′:4,5]thieno[2,3-d]pyrimidin-7-yl]-phenyl-methanone] is 10000 to 40000 nM.
On the same count and under the same terms, the figure for `NCCNc1nc(-c2ccncc2)nc2sc3c(c12)CCC1(C3)OCCO1` [compound 42] is 1000 to 10000 nM.
For `CC1(C)CCc2c(sc3nc(-c4ccncc4)nc(NCCN)c23)C1` [compound 43, N*1*-(7,7-Dimethyl-2-pyridin-4-yl-5,6,7,8-tetrahydro-benzo[4,5]thieno[2,3-d]pyrimidin-4-yl)-ethane-1,2-diamine], under setting [1], the IC50 lay within 1000 to 10000 nM.
Same read-out and setting: the figure for `NCCNc1nc(-c2ccncc2)nc2sc3c(c12)CCSC3` [compound 44, N*1*-(2-Pyridin-4-yl-5,8-dihydro-6H-thio-pyrano[4′,3′:4,5]thieno[2,3-d]pyrimidin-4-yl)-ethane-1,2-diamine] is 1000 to 10000 nM.
The same measure, in the same setting: for `NCCNc1nc(-c2ccncc2)nc2sc3c(c12)CCOC3` [compound 45, N*1*-(2-Pyridin-4-yl-5,8-dihydro-6H-pyrano[4′3′:4,5]thieno[2,3-d]pyrimidin-4-yl)-ethane-1,2-diamine] the value was 10000 to 40000 nM; for `Cc1ccc(C[C@H](N)CNc2nc(-c3ccncc3)nc3sc4c(c23)CCCC4)cc1` [compound 46], 1000 to 10000 nM; for `COc1ccc(C[C@H](N)CNc2nc(-c3ccncc3)nc3sc4c(c23)CCCC4)cc1` [compound 47, (S)-3-(4-Methoxy-phenyl)-N*1*-(2-pyridin-4-yl-5,6,7,8-tetrahydro-benzo[4,5]thieno[2,3-d]pyrimidin-4-yl)-propane-1,2-diamine], 100 to 1000 nM.
As to `Cc1cccc(C[C@H](N)CNc2nc(-c3ccncc3)nc3sc4c(c23)CCCC4)c1` [compound 48, (S)-N*1*-(2-Pyridin-4-yl-5,6,7,8-tetrahydro-benzo[4,5]thieno[2,3-d]pyrimidin-4-yl)-3-m-tolyl-propane-1,2-diamine], the IC50 under setting [1] is 100 to 1000 nM.
Same read-out and setting: for `COc1ccccc1C[C@H](N)CNc1nc(-c2ccncc2)nc2sc3c(c12)CCCC3` [compound 49, (S)-3-(2-methoxy-phenyl)-N*1*-(2-pyridin-4-yl-5,6,7,8-tetrahydro-benzo[4,5]thieno[2,3-d]pyrimidin-4-yl)-propane-1,2-diamine] the value was 1000 to 10000 nM; for `N[C@H](CNc1nc(-c2ccncc2)nc2sc3c(c12)CCCC3)Cc1ccc(F)cc1` [compound 50, (S)-3-(4-Fluoro-phenyl)-N*1*-(2-pyridin-4-yl-5,6,7,8-tetrahydro-benzo[4,5]thieno[2,3-d]pyrimidin-4-yl)-propane-1,2-diamine], 1000 to 10000 nM.
